Data: patent publication US7138361B2, “Herbicidal heterocycles” (E. I. du Pont de Nemours and Company, priority 2000, dated 2006)

Assays:
Type in all cases: in vivo
[1] = tested on: Surinam grass (Brachiaria decumbens); assay: Test B postemergence; details: 13 to 15 days
How it was run: (§1)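 Preemergence: seeds planted and treated with test chemicals in non-phytotoxic solvent with surfactant; postemergence on plants 2–18 cm (1- to 4-leaf stage). Kept in greenhouse 13–15 days, then visually rated against controls on a 0 (no effect) to 100 (complete control) scale.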

[2] = tested on: barnyardgrass (Echinochloa crus-galli); assay: Test B postemergence; details: 13 to 15 days
How it was run: as §1

[3] = tested on: blackgrass (Alopecurus myosuroides); assay: Test B postemergence; details: 13 to 15 days
How it was run: as §1

[4] = tested on: cocklebur (Xanthium strumarium); assay: Test B postemergence; details: 13 to 15 days
How it was run: as §1

corn (Zea mays) [5] = assay: Test B postemergence; details: 13 to 15 days
How it was run: as §1

[6] = tested on: crabgrass (Digitaria sanguinalis); assay: Test B postemergence; details: 13 to 15 days
How it was run: as §1

[7] = tested on: giant foxtail (Setaria faberii); assay: Test B postemergence; details: 13 to 15 days
How it was run: as §1

[8] = tested on: lambsquarters (Chenopodium album); assay: Test B postemergence; details: 13 to 15 days
How it was run: as §1

[9] = tested on: morning glory (Ipomoea hederacea); assay: Test B postemergence; details: 13 to 15 days
How it was run: as §1

[10] = tested on: pigweed (Amaranthus retroflexus); assay: Test B postemergence; details: 13 to 15 days
How it was run: as §1

[11] = tested on: velvetleaf (Abutilon theophrasti); assay: Test B postemergence; details: 13 to 15 days
How it was run: as §1

[12] = tested on: wheat (Triticum aestivum); assay: Test B postemergence; details: 13 to 15 days
How it was run: as §1

wild oat (Avena fatua) = assay: Test B postemergence; details: 13 to 15 days
How it was run: as §1

[13] = tested on: Surinam grass (Brachiaria decumbens); assay: Test B preemergence
How it was run: as §1

[14] = tested on: barnyardgrass (Echinochloa crus-galli); assay: Test B preemergence
How it was run: as §1

[15] = tested on: cocklebur (Xanthium strumarium); assay: Test B preemergence
How it was run: as §1

corn (Zea mays) [16] = assay: Test B preemergence
How it was run: as §1

[17] = tested on: crabgrass (Digitaria sanguinalis); assay: Test B preemergence
How it was run: as §1

[18] = tested on: giant foxtail (Setaria faberii); assay: Test B preemergence
How it was run: as §1

[19] = tested on: lambsquarters (Chenopodium album); assay: Test B preemergence
How it was run: as §1

[20] = tested on: morning glory (Ipomoea hederacea); assay: Test B preemergence
How it was run: as §1

[21] = tested on: pigweed (Amaranthus retroflexus); assay: Test B preemergence
How it was run: as §1

rice (Oryza saliva) = assay: Test B preemergence
How it was run: as §1

[22] = tested on: velvetleaf (Abutilon theophrasti); assay: Test B preemergence
How it was run: as §1

[23] = tested on: smallflower flatsedge (Cyperus difformis); assay: Test C flooded paddy test; details: for Flatsedge plant response rating: Flooded Paddy, scale 0 to 100, 0 no effect, 100 complete control; for Plant response rating, Flatsedge: flooded paddy test, scale 0 to 100 (0 no effect, 100 complete control)
How it was run: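 Visual ratings (0 = no effect, 100 = complete control) were made 12–14 days after treatment, relative to greenhouse controls. Plants in the flooded paddy test were rice, smallflower flatsedge, duck salad and barnyardgrass, treated at the 2-leaf stage.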

Sunflower = assay: Test C preemergence; details: Rate 250 g/ha, scale 0 to 100, 0 no effect, 100 complete control
[24] = Rate 125 g/ha, scale 0 (no effect) to 100 (complete control)
[25] = Rate 500 g/ha, scale 0 to 100, 0 is no effect, 100 is complete control
[26] = Preemergence, Rate 500 g/ha, scale 0 to 100, 0 no effect, 100 complete control
[27] = preemergence, Rate 125 g/ha, scale of 0 to 100 where 0 is no effect and 100 is complete control, 13 to 15 days

CCC(CC)c1ccn(C2CCN(c3ccc(C)c(OC)c3)C2=O)n1 (centres unmarked) [Compound 81]
80: Plant response rating, Morningglory [9, 24] | Plant response rating, Velvetleaf [11, 24] | Plant response rating, Velvetleaf [22, 26]
30: Plant response rating, Crabgrass [6, 25] | Plant response rating, Corn (corn (Zea mays) [16]; [26]) | Plant response rating, Morningglory [20, 27]
100: Plant response rating, Cocklebur [4, 25] | Plant response rating, Morningglory [9, 25] | Plant response rating, Surinam grass [13, 26] | Plant response rating, Barnyardgrass [14, 26] | Plant response rating, Barnyardgrass [14, 27] | Plant response rating, Crabgrass [17, 26] | Plant response rating, Crabgrass [17, 27] | Plant response rating, Foxtail, Giant [18, 26] | Plant response rating, Foxtail, Giant [18, 27] | Plant response rating, Lambsquarters [19, 26] | Plant response rating, Lambsquarters [19, 27] | Plant response rating, Morningglory [20, 26] | Plant response rating, Pigweed [21, 26] | Plant response rating, Pigweed [21, 27]
0: Plant response rating, Surinam grass [1, 24] | Plant response rating, Barnyardgrass [2, 24] | Plant response rating, Barnyardgrass [2, 25] | Plant response rating, Blackgrass [3, 24] | Plant response rating, Blackgrass [3, 25] | Plant response rating, Crabgrass [6, 24] | Plant response rating, Foxtail, Giant [7, 24] | Plant response rating, Foxtail, Giant [7, 25] | Plant response rating, Wheat [12, 24] | Plant response rating, Wheat [12, 25] | Plant response rating, Wild Oat (wild oat (Avena fatua); [24]) | Plant response rating, Wild Oat (wild oat (Avena fatua); [25]) | Plant response rating, Cocklebur [15, 27] | Plant response rating, Corn (corn (Zea mays) [16]; [27]) | Plant response rating, Sunflower (Sunflower)
10: Plant response rating, Surinam grass [1, 25] | Plant response rating, Corn (corn (Zea mays) [5]; [24]) | Plant response rating, Corn (corn (Zea mays) [5]; [25])
70: Plant response rating, Pigweed [10, 24] | Plant response rating, Velvetleaf [22, 27]
50: Plant response rating, Rice (rice (Oryza saliva); [27])
90: Plant response rating, Cocklebur [4, 24] | Plant response rating, Lambsquarters [8, 25] | Plant response rating, Pigweed [10, 25] | Plant response rating, Velvetleaf [11, 25] | Plant response rating, Surinam grass [13, 27] | Plant response rating, Cocklebur [15, 26] | Plant response rating, Rice (rice (Oryza saliva); [26]) | Flatsedge plant response rating ([23]; Rate 250 g/ha) | Flatsedge plant response rating ([23]; Rate 500 g/ha) | Plant response rating, Flatsedge ([23]; Rate 62 g/ha) | Plant response rating, Flatsedge ([23]; Rate 125 g/ha)
20: Plant response rating, Lambsquarters [8, 24]
